What was measured:
[1] = tested on: MCF-7 (ER+) human derived breast carcinoma cells; experiment: Growth inhibitory assay (MTT), MCF-7; type: cell-based; conditions: MCF7, ER+ MCF-7, 3 days (72 h) treatment, n=8, representative mean, ^a = biphasic dose response
Protocol: (§1) Prodrugs were prepared as 10 mM top stocks, dissolved in dimethylsulphoxide (DMSO) or sterile ddH2O, and stored at 4°C, protected from light for a maximum period of 4 weeks. MCF-7 (ER+) and MDA 468 (ER−) human derived breast carcinoma cells, cultivated at 37°C in an atmosphere of 5% CO2 in RPMI 1640 medium supplemented with 2 mM L-glutamine and 10% foetal calf serum, were routinely subcultured twice weekly to maintain continuous logarithmic growth. Cells were seeded into 96-well microtiter plates at a density of 5×10^3 per well and allowed 24 h to adhere before drugs were introduced (final concentration 0.1 nM–100 μM, n=8). Serial drug dilutions were prepared in medium immediately prior to each assay. Viable cell masses at the time of drug addition (time-zero), and following 72 h drug exposure were determined by cell-mediated 3-(4,5-dimethylthiazol-2-yl)-2,5-diphenyltetrazolium bromide (MTT) reduction. MTT was added to each well (final concentration 400 μg ml^−1) and plates were incubated at 37°C for 4 h to allow reduction of MTT by viable cell dehydrogenases to an insoluble formazan product. Well supernatants were aspirated and cellular formazan solubilised by addition of DMSO : glycine buffer (pH 10.5) (4 : 1). Cell growth as well as drug activity were determined by measuring absorbance at 550 nm using an Anthos Labtec systems plate reader.

[2] = tested on: MDA 468 (ER−) human derived breast carcinoma cells; experiment: Growth inhibitory assay (MTT), MDA 468; type: cell-based; conditions: Breast carcinoma cell, ER− MDA 468, 3 days (72 h) treatment, n=8, representative mean, ^a = biphasic dose response
Protocol: as §1

[3] = tested on: CYP1A1 activity (EROD) in MCF-7 cells; experiment: Induction of EROD activity in lysates of treated MCF-7 cells; type: cell-based, human; conditions: lysates of MCF-7 cells treated with 1 μM, 24 h; negligible activity in untreated lysates; mean of three, s.d. <10%
Protocol: (§2) A sensitive and rapid fluorometric assay was used to measure EROD activity ([Burke et al, 1994]). Incubation mixtures (total 1 ml) consisted of 100 mM Tris-HCl (pH 7.4), 50 μM MgCl2, 100 μM 7-ethoxyresorufin and 100 μl cell homogenate. Homogenates were prepared following treatment of cells for 24 h with compounds 1, 2, 2a, 2b, 3, 3a, 3b, 4, 4a and 4b or vehicle alone and protein content determined (n=3). Thus induction of ethoxyresorufin O-deethylation by agents under study, catalysed by CYP1A1 activity, could be determined. Alternatively, microsomes expressing recombinant CYP1A1 (0.1 mg ml^−1) provided the enzyme source for EROD catalysis, in the presence or absence of drug, in order to determine inhibition of CYP1A1 activity by compounds 1, 2, 2a, 2b, 3, 3a, 3b, 4, 4a and 4b. Incubation mixtures were pre-incubated for 5 min at 37°C before initiation of reaction by addition of NADPH (500 μM). Following further incubations at 37°C (30 min for cell homogenates, 15 min for CYP1A1 microsomes), reactions were terminated by addition of 3 ml ice-cold acetonitrile. Reaction mixtures were centrifuged (1400 r.p.m., 10 min) before analyses of supernatants. Fluorescence was read on a Perkin-Elmer LS-5 luminescence spectrometer (excitation, 530 nm; emission 585 nm). Estimation of resorufin reaction product (pmoles mg^−1 protein, pmoles 100 μg^−1 microsomes), as a measure of CYP1A1 activity, was determined following performance of a resorufin standard curve.

CYP1A1 [4] = molecular target: T1, CYP1A1 (Homo sapiens, UniProt P04798); experiment: Inhibition of recombinant CYP1A1 microsomal EROD activity; type: biochemical; conditions: microsomes expressing recombinant CYP1A1, pH 7.4, probe 7-ethoxyresorufin (100 μM); 30 μM agent; incubates without drug = 100% activity; mean of three, s.d. <10%; read-out: Microsomal CYP1A1 EROD activity (% control)
T1 sequence (P04798 1-512): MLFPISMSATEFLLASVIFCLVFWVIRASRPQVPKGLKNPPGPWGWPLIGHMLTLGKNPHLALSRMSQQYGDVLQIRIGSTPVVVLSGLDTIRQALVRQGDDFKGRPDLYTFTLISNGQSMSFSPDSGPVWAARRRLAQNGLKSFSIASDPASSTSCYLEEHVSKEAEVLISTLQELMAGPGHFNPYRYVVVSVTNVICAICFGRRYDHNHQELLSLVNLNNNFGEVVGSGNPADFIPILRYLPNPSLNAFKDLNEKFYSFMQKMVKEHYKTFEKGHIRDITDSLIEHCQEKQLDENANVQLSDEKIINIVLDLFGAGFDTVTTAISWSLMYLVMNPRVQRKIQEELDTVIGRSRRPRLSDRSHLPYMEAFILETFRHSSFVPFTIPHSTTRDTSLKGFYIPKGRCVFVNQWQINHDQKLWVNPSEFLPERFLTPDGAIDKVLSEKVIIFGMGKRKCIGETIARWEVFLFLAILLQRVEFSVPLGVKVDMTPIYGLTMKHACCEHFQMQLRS
Protocol: as §2

[5] = tested on: CYP1A1 protein expression in MCF-7 cells; experiment: Western blot of CYP1A1 protein, MCF-7 lysates; type: cell-based, human; conditions: 1 μM, 24 h
Protocol: (§3) Whole cell lysates were prepared for examination of CYP1A1 protein expression from untreated MCF-7, IGROV-1 and HCT 116 cultures and following exposure of cells to compounds 1, 2, 2a, 2b, 3, 3a, 3b, 4, 4a and 4b. Following protein determination (n=3, [Bradford, 1976]) and addition of sample buffer, samples were boiled at 95°C for 5 min and solubilised proteins (50 μg) were separated by sodium dodecyl sulphate (SDS) polyacrylamide gel (10%) electrophoresis. Proteins were electroblotted to polyvinylidene difluoride (PVDF) membranes and probed for CYP1A1 protein with polyclonal antiserum specific for human CYP1A1/1A2 (Gentest Corporation). Secondary antibody was conjugated to alkaline phosphatase, and CYP1A1 was detected following brief (<10 min) incubation with bromochloroindolyl phosphate and nitro-blue tetrazolium in alkaline phosphatase buffer. Molecular weight markers and a positive control of recombinant CYP1A1 (Gentest Corporation), included in all blots, confirmed detection of 52 kDa CYP1A1 protein.

[6] = tested on: CYP1A1 protein expression in HCT 116 cells; experiment: Western blot of CYP1A1 protein, HCT 116 lysates; type: cell-based, human
Protocol: as §3

MCF-7 cells = experiment: Prodrug uptake, conversion and metabolism (HPLC of media), MCF-7; type: in vitro ADME, human; conditions: for Biotransformation products of liberated parent amine in media: prodrug 10 μM, days 1–7
Protocol: (§4) MCF-7 cells were seeded into 25 ml flasks at appropriate densities (5×10^5–5×10^6). After 24 h, medium was changed and drug introduced at a final concentration of 10 μM. Media samples, collected from flasks at time zero and 24 h intervals, were mixed with 1.5-fold volumes of high performance liquid chromatography (HPLC) grade acetonitrile to precipitate protein and centrifuged at 14 000 g for 5 min. Supernatants (600 μl) were mixed with 400 μl 10% acetonitrile in 1% acetic acid and analysed by HPLC. The system consisted of Beckman System Gold equipment (solvent module 128, autosampler 507e and multiple wavelength UV detector 168). Separation of parent compounds and biotransformation products was effected at room temperature on a Phenomenex Aqua C18 reversed-phase column (150×4.6 mm). The mobile phase was formed by increasing, then decreasing the acetonitrile concentration in 1% acetic acid over 20 min by mixing two solutions: acetonitrile-water-acetic acid (10 : 90 : 1, v v^−1) and acetonitrile-water-acetic acid (80 : 20 : 1 v v^−1) and delivered at a flow rate of 1 ml min^−1. Compounds were detected at 324 nm.

T47D breast cells = experiment: Prodrug uptake, conversion and metabolism (HPLC of media), T47D; type: in vitro ADME, human
Protocol: as §4, with “The mobile phase was formed by increasing, then decreasing the acetonitrile concentration in 1% acetic acid over 20 min by mixing two solutions: acetonitrile-water-acetic acid (10 : 90 : 1, v v^−1) and acetonitrile-water-acetic acid (80 : 20 : 1 v v^−1) and delivered at a flow rate of 1 ml min^−1.” left out
(§5) Uptake and metabolism of compounds 1a and 1b were examined in sensitive breast (MCF-7 and T47D) and insensitive renal (A498) cells using HPLC conditions which allow simultaneous detection of prodrug, parent amine and metabolites. When incubated at 0.1, 1 or 10 μM over 7 days at 37°C, the lysyl-amide compound 1a was most readily removed from the media supporting MCF-7 and T47D cells (Figure 2

A498 renal cells = experiment: Prodrug uptake, conversion and metabolism (HPLC of media), A498; type: in vitro ADME, human
Protocol: as §4, with “The mobile phase was formed by increasing, then decreasing the acetonitrile concentration in 1% acetic acid over 20 min by mixing two solutions: acetonitrile-water-acetic acid (10 : 90 : 1, v v^−1) and acetonitrile-water-acetic acid (80 : 20 : 1 v v^−1) and delivered at a flow rate of 1 ml min^−1.” left out
as §5

CYP1A1 [7] = molecular target: T1, CYP1A1; design: method as in Chua et al, 2000; conditions: ref Chua et al, 2000; cited from earlier work
[8] = Stability in human plasma; type: in vitro ADME; conditions: 37°C; no free amine detected
Excerpt: Data have been presented describing the in vitro biological properties of alanyl and lysyl amide derivatives of 2-(4-amino-3-methylphenyl)benzothiazoles. Prodrugs are rapidly depleted from nutrient media, generating their parent species in the presence of cells (Figures 2 and 3). In the absence of cells, no spontaneous hydrolysis of the amide bond occurs to release the amine from its amino acid salt. The cleavage of amino acid amides may be catalysed by ubiquitously expressed aminopeptidases, but subsequent bioactivating steps, essential for the mechanism of action of aminophenylbenzothiazoles, take place selectively in sensitive cell lines (e.g. Figure 5). Compounds 1a and 1b were stable when incubated at 37°C with human plasma; specifically, no free amine was detected.

SMILES | GI50 [1] [nM] | GI50 [2] [nM] | Induction EROD activity [3] | activity at 15 min, 30 μM (CYP1A1 [4]) [%] | CYP1A1 protein expression (Western blot) [5] | CYP1A1 protein expression (Western blot) [6] | Time of peak media level of regenerated parent amine (MCF-7 cells; regenerated from amide prodrugs, 7 day incubation) [days] | Time of peak media level of regenerated parent amine (T47D breast cells; T47D cells, regenerated from amide prodrugs, 7 day incubation) [days] | Removal of effluxed parent amine from media (A498 renal cells; inherently resistant A498 cells, 7 day incubation) | Inhibition of CYP1A1 microsome activity (CYP1A1 [7]) | Hydrolysis of prodrug to parent amine (T47D breast cells; 10 μM, sensitive ER+ T47D breast cells, 37°C) | Hydrolysis of prodrug to parent amine (A498 renal cells; 10 μM, insensitive A498 renal cells, 37°C) | Stability in human plasma [8] | Biotransformation products of liberated parent amine in media (MCF-7 cells)
Cc1cc(-c2nc3ccccc3s2)ccc1N [Compound 1, 2-(4-amino-3-methylphenyl)benzothiazole] | < 0.1 | < 0.1 | 17.58 nM resorufin mg^-1 protein | 22.6 | induced | not induced | 3 | 3 | negligible net removal | irreversibly inhibited | – | – | – | –
Cc1cc(-c2nc3ccccc3s2)ccc1NC(=O)[C@H](C)N [Compound 1a] | 0.32 | 39.9 | – | – | – | – | – | – | – | – | rapidly and efficiently hydrolysed | rapidly and efficiently hydrolysed | stable | –
Cc1cc(-c2nc3ccccc3s2)ccc1NC(=O)[C@@H](N)CCCCN [Compound 1b] | 41.6 | 67.1 | – | – | – | – | – | – | – | – | – | – | stable | –
Cc1cc(-c2nc3cc(F)ccc3s2)ccc1NC(=O)[C@H](C)N [Compound 2a] | 5.8 | 37.7 | 28.37 nM resorufin mg^-1 protein | 40.6 | induced | – | – | – | – | – | – | – | – | –
Cc1cc(-c2nc3ccc(F)cc3s2)ccc1N [Compound 3] | 0.65 | 0.73 | 32.60 nM resorufin mg^-1 protein | 36.4 | induced | not induced | – | – | – | – | – | – | – | emergence of an oxidative metabolite
Cc1cc(-c2nc3ccc(F)cc3s2)ccc1NC(=O)[C@H](C)N [Compound 3a] | 43.5 | 297 | 20.40 nM resorufin mg^-1 protein | 28.9 | induced | – | – | – | – | – | – | – | – | –
Cc1cc(-c2nc3ccc(F)cc3s2)ccc1NC(=O)[C@@H](N)CCCCN [Compound 3b] | 147 | 328 | 19.88 nM resorufin mg^-1 protein | 47 | induced | – | – | – | – | – | – | – | – | –
Cc1cc(-c2nc3cc(F)c(F)cc3s2)ccc1N [Compound 4] | < 0.1 | 3.55 | 32.02 nM resorufin mg^-1 protein | 43.1 | induced | – | – | – | – | – | – | – | – | emergence of an oxidative metabolite
Cc1cc(-c2nc3cc(F)c(F)cc3s2)ccc1NC(=O)[C@H](C)N [Compound 4a] | 33 | 220 | 17.09 nM resorufin mg^-1 protein | 41.9 | induced | – | – | – | – | – | – | – | – | –
Cc1cc(-c2nc3cc(F)c(F)cc3s2)ccc1NC(=O)[C@@H](N)CCCCN [Compound 4b] | 30.7 | 302 | 20.04 nM resorufin mg^-1 protein | 54.9 | induced | – | – | – | – | – | – | – | – | –

Source: paper PMC2375326, “In vitro evaluation of amino acid prodrugs of novel antitumour 2-(4-amino-3-methylphenyl)benzothiazoles” (British Journal of Cancer, 2002)
